Measurements: US11098083B2, “Peptide that regulates fat metabolism and method for regulating fat metabolism” (SHENZHEN INSTITUTES OF ADVANCED TECHNOLOGY, priority 2017, dated 2021)
Ends that are not written are not given here.

Assays:
DIO-NAFLD mice [1] = experiment: i.p. injection of ISAP1 in DIO-NAFLD mice: liver fat (appearance, oil red O staining); format: in vivo, C57BL/6 mice; conditions: daily i.p. injection 6 weeks
Source text: S122: effect of i.p. injection of ISAP1 on the liver may be studied.
In S121, livers may be collected while collecting the adipose tissues, and appearance of the livers may be photographed. A part of liver tissues may be taken for frozen sectioning, stained with oil red O for microscopic observation, and then a same area may be quantitatively analyzed. […] The […] the color is, the higher the fat content is contained.

human GPRC6A (hGPRC6A) = target: T1, human GPRC6A (hGPRC6A) (Homo sapiens, UniProt Q5T6X5); experiment: fluorescent binding of OCN peptides to cell membranes of Hela cells with hGPRC6A overexpressed; conditions: Hela cells with hGPRC6A overexpressed, fluorescent detection, FIG. 6B
T1 construct: expressed in transfected cells; host or cells: Hela cells (transfected with Lipofectamine 2000)
T1 sequence (Q5T6X5 19-926): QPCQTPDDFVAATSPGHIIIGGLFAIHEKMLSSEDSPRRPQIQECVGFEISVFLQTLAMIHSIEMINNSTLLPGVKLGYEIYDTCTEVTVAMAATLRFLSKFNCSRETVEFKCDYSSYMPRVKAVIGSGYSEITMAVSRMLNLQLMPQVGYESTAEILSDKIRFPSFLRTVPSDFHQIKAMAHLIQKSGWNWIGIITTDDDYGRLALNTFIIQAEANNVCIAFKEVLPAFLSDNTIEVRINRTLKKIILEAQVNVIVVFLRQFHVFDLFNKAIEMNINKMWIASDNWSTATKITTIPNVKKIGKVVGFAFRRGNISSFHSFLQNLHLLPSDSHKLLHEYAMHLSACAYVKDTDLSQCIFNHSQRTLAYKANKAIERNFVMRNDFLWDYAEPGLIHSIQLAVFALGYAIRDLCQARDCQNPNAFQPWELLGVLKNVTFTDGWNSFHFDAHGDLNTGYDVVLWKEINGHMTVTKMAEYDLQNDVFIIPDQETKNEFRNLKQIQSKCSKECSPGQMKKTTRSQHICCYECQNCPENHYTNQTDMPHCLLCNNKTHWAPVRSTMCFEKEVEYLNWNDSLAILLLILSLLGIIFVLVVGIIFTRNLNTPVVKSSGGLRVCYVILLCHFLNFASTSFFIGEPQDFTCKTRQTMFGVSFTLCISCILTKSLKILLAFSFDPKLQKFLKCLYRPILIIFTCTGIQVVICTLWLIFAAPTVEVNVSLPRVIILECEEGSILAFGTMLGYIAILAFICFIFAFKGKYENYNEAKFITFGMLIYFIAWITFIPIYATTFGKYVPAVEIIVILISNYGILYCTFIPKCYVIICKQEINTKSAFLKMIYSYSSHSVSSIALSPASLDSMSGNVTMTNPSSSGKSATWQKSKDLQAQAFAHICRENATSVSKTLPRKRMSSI
Experimental: S131: overexpression of hGPRC6A in Hela cells may be established.
1) Cell plating: A Hela cell suspension may be plated at a density of 1.6×10^5 cells/mL into a 6-well tray with 2 mL of DMEM per well, incubating at 37° C. and 5% CO2 for 24 hours.
2) A vector carrying hGPRC6A (pReceiver-M61) may be transfected into the Hela cells for overexpression, using Lipofectamine 2000 (Invitrogen) as per manufacturer's instructions, and media containing the vector may be replaced by normal media 4 hours later.
3) After the transfection, the cells may be cultured in the normal media for another 48 hours, and the normal media may be discarded. The cells attached on a bottom of each well may be washed twice with sterile PBS, and 300 μl of TRIzol solution may be added into each well. Cellular RNAs may be extracted as per RNAiso Plus (TaKaRa) instructions, and after a DNase treatment, may be reversely transcribed into cDNAs using DNAEngine and a SuperScript™ (Invitrogen, Canada) kit. The cDNAs may be used as a template, and real-time monitoring and analysis may be performed to fluorescent PCR products at various time points using a SYBR Green (Light Cycler Roche, Germany) method to detect expression levels of the hGPRC6A. […] The selected cell strain may then be detected for its gene expression by qPCR. […]

wild-type C57BL/6 mice = experiment: intestinal fat (olive oil) absorption in normal mice, i.p. injection of peptide; format: in vivo; conditions: FIG. 5
Experimental: S140: effect of acute gavage of ISAP1 on intestinal fat absorption in normal mice may be studied.
Six-week-old male wild-type C57BL/6 mice may be divided into four groups, three in each group, three out of the four groups of mice may be intestinally perfused with 200 μl sterilized olive oil solution (Sigma), and the other one group of mice may be intestinally perfused with normal saline solution to be a negative control group. After 30 minutes, two groups of the mice treated with sterilized olive oil solution may be i.p. injected with OCN (6 pmol/g) and ISAP1 (6 pmol/g) respectively, and the other one group of the mice treated with sterilized olive oil solution may be i.p. injected with normal saline solution to be a saline control group. Further the mice of the negative control group solution may also be i.p. injected with normal saline solution to be the negative group. The mice of all four groups may be sacrificed 30 minutes later. Small intestine samples may be collected. The small intestine sample may be taken from a duodenum to a caecum, divided into 3 segments of equal length. After washing with pre-cooled normal saline solution, a segment close to the duodenum may be frozen and sliced, stained with oil red O and observed for fat absorption.

DIO-NAFLD mice [2] = experiment: i.p. injection of ISAP1 in DIO-NAFLD mice: liver functions and blood lipids; format: in vivo, C57BL/6 mice; conditions: daily i.p. 6 weeks, even at 2 pmol/g, compared with HFD control group, FIG. 4
Source text: S123: the effect of i.p. injection of ISAP1 on liver functions and blood lipids in mice may be studied.
In S121, before sacrificing the mice, blood of each mouse may be collected from a tail vein and detected for a level of alanine aminotransferases (ALT), a level of alkaline phosphatases (ALP), a level of aspartate aminotransferases (AST), a serum level of cholesterols, a level of low-density lipoprotein (LDL), and a level of high-density lipoprotein (HDL) using a Roche […] (model cobas 8000) as per manufacturer's instructions.

YLGASVPSPDPLEPT [ISAP1] was tested, and the “proportion of fat in the liver (oil red O staining)” value (DIO-NAFLD mice [1]; compared with HFD control group, FIG. 3C) was “decreased significantly”, the “liver fat accumulation (liver appearance)” value (DIO-NAFLD mice [1]; vs HFD+carrier, FIG. 3A) was “significantly reduce the liver fat accumulation” and the “affinity of binding to the hGPRC6A compared with OCN” value (human GPRC6A (hGPRC6A)) was “consistent with that of the OCN”. For the same sequence, the “mouse intestinal absorption of the olive oil (oil red O-positive area / total area of intestinal villi)” value (wild-type C57BL/6 mice; 6 pmol/g i.p. 30 min after 200 μl olive oil, compared with saline control group) was “effectively reduce”, the “reduction in olive oil absorption compared with OCN treatment” value (wild-type C57BL/6 mice; 6 pmol/g i.p., OCN 6 pmol/g) was “even more effective than the OCN treatment” and the “level of alanine aminotransferases (ALT) in blood” value (DIO-NAFLD mice [2]) was “effective in reducing”. For the same sequence, the “level of alkaline phosphatases (ALP) in blood” value (DIO-NAFLD mice [2]) was “effective in reducing”, the “level of aspartate aminotransferases (AST) in blood” value (DIO-NAFLD mice [2]) was “effective in reducing” and the “level of low-density lipoprotein (LDL)” value (DIO-NAFLD mice [2]) was “effective in reducing”. The “serum level of cholesterols” value (DIO-NAFLD mice [2]) was “effective in reducing”.
